Assays:
Type in all cases: in vivo
Settings in all cases: evaluated visually after 13 days, 100=total damage, 0=no damage
[1] = test system: Abutilon theophrasti (ABUTH); assay: Herbicidal efficacy, post-emergence application (glasshouse)
Procedure: (§1) Seeds of a variety of test species [Ipomoea hederacea (IPOHE); Zea mays (ZEAMX); Echinochloa crus-galli (ECHCG); Setaria faberi (SETFA); Abutilon theophrasti (ABUTH); Amaranthus retroflexus (AMARE)] were sown in standard sterilised soil in pots. After cultivation for one day (pre-emergence) or after 8 days cultivation (post-emergence) under controlled conditions in a glasshouse (at 24/16° C., day/night; 14 hours light; 65% humidity), the plants were sprayed with an aqueous spray solution derived from the formulation of the technical active ingredient in acetone/water (50:50) solution containing 0.5% Tween 20 (polyoxyethelyene sorbitan monolaurate, CAS RN 9005-64-5), subsequently diluted in water, and sprayed to give the stated application rate.
(§2) The test plants were then grown under controlled conditions in a glasshouse (at 24/16° C., day/night; 14 hours light; 65% humidity) and watered twice daily.
(§3) After 13 days for pre and post-emergence, the test was evaluated visually for percentage phytotoxicity to the plant (where 100=total damage to plant; 0=no damage to plant).

[2] = test system: Amaranthus retroflexus (AMARE); assay: as above
Procedure: as §1, §2, §3

[3] = test system: Echinochloa crus-galli (ECHCG); assay: as above
Procedure: as §1, §2, §3

[4] = test system: Ipomoea hederacea (IPOHE); assay: as above
Procedure: as §1, §2, §3

Setaria faberi (SETFA) [5] = assay: as above
Procedure: as §1, §2, §3

Zea mays (ZEAMX) [6] = assay: as above
Procedure: as §1, §2, §3

[7] = test system: Abutilon theophrasti (ABUTH); assay: Herbicidal efficacy, pre-emergence application (glasshouse)
Procedure: as §1, §2, §3

[8] = test system: Amaranthus retroflexus (AMARE); assay: as above
Procedure: as §1, §2, §3

[9] = test system: Echinochloa crus-galli (ECHCG); assay: as above
Procedure: as §1, §2, §3

[10] = test system: Ipomoea hederacea (IPOHE); assay: as above
Procedure: as §1, §2, §3

Setaria faberi (SETFA) [11] = assay: as above
Procedure: as §1, §2, §3

Zea mays (ZEAMX) [12] = assay: as above
Procedure: as §1, §2, §3

[13] = Abutilon theophrasti, 312 h, read-out: percentage phytotoxicity to the plant, ABUTH
[14] = Amaranthus retroflexus, 312 h, read-out: percentage phytotoxicity to the plant, AMARE
[15] = Echinochloa crus-galli, 312 h, read-out: percentage phytotoxicity to the plant, ECHCG
[16] = Ipomoea hederacea, 312 h, read-out: percentage phytotoxicity to the plant, IPOHE
[17] = Setaria faberi, 312 h, read-out: percentage phytotoxicity to the plant, SETFA
[18] = Zea mays, 312 h, read-out: percentage phytotoxicity to the plant, ZEAMX

Question: `CN1C[C@H](c2cnn(C)c2C(F)(F)F)[C@@H](C(=O)Nc2cccc(F)c2F)C1=O` [Compound 2.15, (3S,4S)-N-(2,3-difluorophenyl)-1-methyl-4-[1-methyl-5-(trifluoromethyl)pyrazol-4-yl]-2-oxo-pyrrolidine-3-carboxamide] was tested. Which pest or weed control at 250 g/ha [1, 13] did it give?
Answer: The pest or weed control at 250 g/ha was 0%.

Question: And the pest or weed control at 250 g/ha [2, 14]?
Answer: The pest or weed control at 250 g/ha was 0%.

Question: What about the pest or weed control at 250 g/ha [3, 15] of the same molecule?
Answer: The pest or weed control at 250 g/ha was 80%.

Question: And the pest or weed control at 250 g/ha [4, 16]?
Answer: Its pest or weed control at 250 g/ha is 40%.

Question: What about the pest or weed control at 250 g/ha (Setaria faberi (SETFA) [5]; [17]) of the same molecule?
Answer: Its pest or weed control at 250 g/ha is 80%.

Question: And the plant injury at 250 g/ha (Zea mays (ZEAMX) [6]; [18])?
Answer: Its plant injury at 250 g/ha is 30%.

Question: And the pest or weed control at 250 g/ha [7, 13]?
Answer: Its pest or weed control at 250 g/ha is 40%.

Question: And the pest or weed control at 250 g/ha [8, 14]?
Answer: The pest or weed control at 250 g/ha was 0%.

Question: What about the pest or weed control at 250 g/ha [9, 15] of the same molecule?
Answer: The pest or weed control at 250 g/ha was 100%.

Question: What about the pest or weed control at 250 g/ha [10, 16] of the same molecule?
Answer: The pest or weed control at 250 g/ha was 20%.

Question: What about the pest or weed control at 250 g/ha (Setaria faberi (SETFA) [11]; [17]) of the same molecule?
Answer: Its pest or weed control at 250 g/ha is 100%.

Question: What about the plant injury at 250 g/ha (Zea mays (ZEAMX) [12]; [18]) of the same molecule?
Answer: The plant injury at 250 g/ha was 40%.

Question: With “(3S,4R)-N-[2-(1,1-difluoroethyl)-3-fluoro-phenyl]-1-methyl-4-[1-methyl-5-(trifluoromethyl)pyrazol-3-yl]-2-oxo-pyrrolidine-3-carboxamide [Compound 2.12]” as the molecule, how does the “percentage phytotoxicity to the plant, ABUTH” value ([1]; 250 g/ha) read?
Answer: Its value is 0%.

Question: And the “percentage phytotoxicity to the plant, AMARE” value ([2]; 250 g/ha)?
Answer: The value was 0%.

Question: What about the “percentage phytotoxicity to the plant, ECHCG” value ([3]; 250 g/ha) of the same molecule?
Answer: Its value is 90%.

Question: And the “percentage phytotoxicity to the plant, IPOHE” value ([4]; 250 g/ha)?
Answer: Its value is 50%.

Question: What about the “percentage phytotoxicity to the plant, SETFA” value (Setaria faberi (SETFA) [5]; 250 g/ha) of the same molecule?
Answer: The value was 90%.

Question: What about the “percentage phytotoxicity to the plant, ZEAMX” value (Zea mays (ZEAMX) [6]; 250 g/ha) of the same molecule?
Answer: Its value is 80%.

Question: And the “percentage phytotoxicity to the plant, ABUTH” value ([7]; 250 g/ha)?
Answer: Its value is 0%.

Question: And the “percentage phytotoxicity to the plant, AMARE” value ([8]; 250 g/ha)?
Answer: The value was 0%.

Question: What about the “percentage phytotoxicity to the plant, ECHCG” value ([9]; 250 g/ha) of the same molecule?
Answer: Its value is 90%.

Question: What about the “percentage phytotoxicity to the plant, IPOHE” value ([10]; 250 g/ha) of the same molecule?
Answer: The value was 70%.

Question: And the “percentage phytotoxicity to the plant, SETFA” value (Setaria faberi (SETFA) [11]; 250 g/ha)?
Answer: Its value is 90%.

Question: And the “percentage phytotoxicity to the plant, ZEAMX” value (Zea mays (ZEAMX) [12]; 250 g/ha)?
Answer: Its value is 90%.

— US11472792B2, “Herbicidal mixtures” (SYNGENTA CROP PROTECTION AG, priority 2019, dated 2022)
